Reference: PMC8229129, “Local Colonic Administration of a Serine Protease Inhibitor Improves Post-Inflammatory Visceral Hypersensitivity in Rats” (Pharmaceutics, 2021)
Several values for one entry are separate records, joined by “and”; a condition that tells them apart may be missing. Equal entries are not always repeated.

Tests used:
[1] = test system: kallikrein 4; set-up: method as in PMID 29911328; details: in vitro; cited from earlier work
[2] = test system: colonic mucosal damage; assay: Macroscopic score of mucosal damage; format: in vivo, Sprague–Dawley rats; details: for Macroscopy, Day of VMR: score 0–10, mean ± SEM, n = 8
Method: After VMR and compliance measurements, the rat was sacrificed by exsanguination under pentobarbital anesthesia (45 mg/kg, i.p.). The colon was excised, rinsed with Krebs solution, opened along the mesenteric border, and evaluated visually for the presence of mucosal damage using a previously validated scoring system (total score 0–10, Supplementary Table S2).

[3] = Pharmacokinetics after intravenous administration (plasma, LC-MS/MS, PKSolver two-compartment model); format: in vivo, Sprague–Dawley rats; details: rat, i.v. 1 mg/kg
Method: To evaluate the pharmacokinetic properties of UAMC-00050, it was administered in male Sprague–Dawley rats (200–225 g) either colonically (5 mg/kg, in a volume of 200 µL 5% DMSO solution) or intravenously (1 mg/kg in a volume of 200 µL 5% DMSO solution). Plasma samples were collected after 5, 15, 30, 45, 60, 90, 120, and 180 min via the tail vein and stored at −80 °C until analysis.
Sample preparation and analysis of plasma samples consisted of protein precipitation followed by direct injection in a liquid chromatography–tandem mass spectrometry (LC-MS/MS) instrument. Briefly, 100 µL of plasma was spiked with 20 µL of nordazepam-D5 used as internal standard for quantification (yielding in a final concentration of 485 ng/mL) and afterwards 180 µL of acetonitrile was added to precipitate proteins. Subsequently, the samples were vortexed for 2.5 min at 2000× g and centrifuged for 5 min at 10,000× g. In a next step, 100 µL of the supernatant was transferred to a 0.20 µm centrifugal filter to remove remaining particles. After centrifugation for 5 min at 10,000× g, the remaining filtrate was transferred to an autosampler vial ready to be analyzed with LC-MS/MS. A seven-level point calibration curve with final concentrations ranging between 5 and 1000 ng/mL and a curve weighting factor of 1/x^2 was prepared in blank mouse plasma using different working solution standards of UAMC-00050 and a fixed amount of internal standard. The lower limit of quantification of the method was 5 ng/mL.
A gradient was applied as follows: 0–0.5 min: 5% B; 0.5–10 min 5–100% B; 10–12 min 100% B; and 12–12.1 min 5% B. The total run time was 18 min and the injection volume was set to 5 µL. Detection and quantification of UAMC-00050 were performed with an Agilent 6410 triple quadrupole MS system with an electrospray interface (ESI) operating in positive ionization mode. The following source parameters were applied: gas temperature 350 °C, gas flow 10 L/min, nebulizer 35 psi, and capillary voltage 4000 V. Compound-dependent MS parameters are summarized in Table 1. The most abundant transition of UAMC-00050 was used as quantifier and the other transitions were used for confirmation (qualifiers). For compound confirmation, the following criteria were used: the quantifier/qualifier ratio should fall within ±15% of the ratio observed in calibrators and the relative retention time should fall within 2.5% of the values observed in the calibrators.
All data are presented as mean ± SEM or as median (IQR). Pharmacokinetic analysis and modeling of the plasma concentration–time data was performed using PKSolver. Other statistical analysis and data visualization processes were performed using R software (version 4.0.3) and GraphPad Prism (version 7.04). The nominal significance level was 0.05 for all tests. The development of body weight, VMR results, and colonic compliance were assessed with generalized estimating equations (GEE) using an unstructured working correlation matrix, followed by Fisher’s least significant difference (LSD) post hoc test on prespecified pairwise comparisons of interest. Inflammatory parameters were analyzed using two-way analysis of variance (ANOVA), followed by Student–Newman–Keuls (SNK) post hoc testing when applicable. To evaluate the differences in proteolytic activities between control, post-colitis, treated, and untreated rats, a two-way ANOVA was conducted. Main effects were tested on split files with a Mann–Whitney U test with Bonferroni correction. To assess correlations between specific fecal or colonic proteolytic activities and inflammatory parameters, the pairwise comparisons of interest were determined a priori. Spearman’s rank order correlation coefficient was used and the Holm–Bonferroni method was applied to correct for multiplicity.

[4] = test system: kallikrein 2; set-up: method as in PMID 29911328; details: in vitro; cited from earlier work

SMILES: CC(=O)Nc1ccc(OP(=O)(Oc2ccc(NC(C)=O)cc2)C(Cc2ccc(N=C(N)N)cc2)NC(=O)OCc2ccccc2)cc1.Cl (centres unmarked) [UAMC-00050]
- inhibition of kallikrein 4 [1]: efficiently inhibits
- Macroscopy, Day of VMR ([2]; control rats, 5.0 mg/kg intracolonic): 0.0 ± 0.0
- Macroscopy, Day of VMR ([2]; post-colitis rats, 0.1 mg/kg intracolonic): 0.0 ± 0.0
- Macroscopy, Day of VMR ([2]; post-colitis rats, 1.0 mg/kg intracolonic): 0.0 ± 0.0
- Macroscopy, Day of VMR ([2]; post-colitis rats, 2.5 mg/kg intracolonic): 0.0 ± 0.0
- Macroscopy, Day of VMR ([2]; post-colitis rats, 5.0 mg/kg intracolonic): 0.0 ± 0.0
- Effect on macroscopic evaluation of mucosal damage ([2]; single intracolonic administration, control and post-colitis rats): no effect
- k12 ([3]; distribution to the peripheral compartment): 0.028 min⁻¹
- k21 ([3]; redistribution from peripheral to central compartment): 0.014 min⁻¹
- A ([3]; two-compartment model): 500.7 ng/mL
- AUC 0-inf ([3]; two-compartment model): 5915 ng·min/mL
- AUC 0-t ([3]; two-compartment model): 5422 ng·min/mL
- AUMC ([3]; two-compartment model): 200,489 ng/mL*min2
- Alpha ([3]; two-compartment model): 0.119 min⁻¹
- B ([3]; two-compartment model): 17.9 ng/mL
- Beta ([3]; two-compartment model): 0.010 min⁻¹
- C0 ([3]; two-compartment model): 518.7 ng/mL
- CL ([3]; two-compartment model): 0.0005072 (mg)/(ng/mL)/min
- CL2 ([3]; two-compartment model): 0.0001621 (mg)/(ng/mL)/min
- MRT ([3]; two-compartment model): 33.9 min
- V ([3]; two-compartment model): 0.006 (mg)/(ng/mL)
- V2 ([3]; two-compartment model): 0.011 (mg)/(ng/mL)
- Vss ([3]; two-compartment model): 0.017 mg/(ng/mL)
- k10 ([3]; two-compartment model): 0.087 min⁻¹
- k12 ([3]; two-compartment model): 0.028 min⁻¹
- k21 ([3]; two-compartment model): 0.014 min⁻¹
- t1/2Beta ([3]; two-compartment model): 66.5 min
- t1/2Alpha ([3]; two-compartment model, 1 mg/kg): 5.800 min and 5.8 min
- inhibition of kallikrein 2 [4]: efficiently inhibits
